Source: patent US20210315893A1 (Galapagos NV, priority 2017, published 2021)
pEC50: −log10 of the molar value.

Legend:
HFL-1 cells [1] = assay: IL8 assay in the presence of Human Serum Albumin; conditions: HFL1, read-out: HSA IL8 EC50
Procedure: To evaluate the influence of plasma protein binding of S1P as well as compound, the S1P induced IL-8 levelswereevaluatedin presence of Human Serum Albumin (HSA, equivalent to 40% human serum).
Human Fetal Lung cells (HFL-1) are seeded in 96 well plates in growth medium (F12K+10% heat inactivated FBS+1% Pen/strep). […] On day three, compounds are added (10 point serial dilution, 30 μM highest concentration, 1/3 dilution, 0.3% DMSO final) and plates are incubated for 1 h at 37° C., 5% CO2. Subsequently S1P at 5 μM final concentration is added and plates are incubated for 16 to 24 h at 37° C., 5% COafter which the supernatant was collected. IL-8 levels in the supernatant are determined with the IL-8 ELISA of R&D systems.

S1PR2 = target: T1, S1PR2 (Homo sapiens, UniProt O95136); assay: S1PR2 binding assay (competition with radioactively labeled S1P, SpA); conditions: membranes from stable cell line over expressing S1PR2, SpA beads; read-out: S1P2 EC50 (nM), S1PR2 binding EC50
T1 construct: expressed in transfected cells
In short: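 Competition with [3H]S1P for membranes from a stable S1PR2-overexpressing cell line, 20 μg/well, captured on PVT-WGA SPA beads, in 20 mM Tris pH 7.5, 10 mM MgCl2, 100 mM NaCl, 0.4% fatty-acid-free BSA, 1 mM Na3VO4. 2 h at room temperature, then centrifugation and scintillation counting.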

HFL-1 cells [2] = assay: IL-8 production assay (S1P induced IL-8); type: cell-based; conditions: Homo sapiens, HFL1; S1P (1 μM) induced IL-8 in HFL-1 cells, starvation medium without HSA; read-out: IL8 EC50
In short: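 HFL-1 human fetal lung fibroblasts were starved in F12K/1% FBS, then given compound for 1 h (10-point, 1/3 dilution, 30 μM top, 0.3% DMSO final). S1P was added at 1 μM final for 16–24 h at 37 °C, and secreted IL-8 in supernatant quantified by ELISA.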

[3] = target: T2, human GPCR sphingosine 1-phosphate receptor 1 (Homo sapiens, UniProt P21453); assay: S1PR1 selectivity Ca2+ flux assay (antagonist readout); type: cell-based; conditions: antagonist readout, CHO cells overexpressing human S1PR1 and Gq, S1P at EC80 (6 nM); read-out: S1P1 EC50 (nM), S1P1 antagonist EC50
T2 construct: host or cells: CHO
Procedure: 50 μL of Chinese hamster ovary (CHO) cells stably overexpressing human S1PR1 or S1PR5 are seeded in 384 well sterile microplates (7,500 cells/well or 10,000 cells/well respectively) and are incubated overnight at 37° C. under 5% CO2. Cells are subsequently washed twice with 25 μL/well of starvation medium (F-12 Ham's medium containing 0.1% fatty acid free bovine serum albumin (FAF BSA)). After one h starvation at 37° C., 5% CO2, cells are loaded with 25 μL of Fluo 8 dye diluted in Hank's balanced salt solution (HBSS) with 20 mM Hepes complemented with 5 mM of probenecid following the recommendations of the manufacturer (one h at 37° C., 5% CO2). Dilution series of compounds are prepared in HBSS buffer with 20 mM Hepes and 0.1% BSA (FAF). 10 μL of diluted compound is added to the cells using the FDSS/pCELL and intracellular calcium changes are measured immediately by recording fluorescence during 3 min (agonist readout). The ratio of maximal signal over background before compound injection is used to determine compound response.
After an incubation of 15 min at 37° C., following the agonist readout, the plates are transferred to the FDSS/pCELL reader. […] The ratio of maximal signal over background before S1P injection was used to determine the inhibitory effect ofthe compound.
Raw data obtained in each experiment (ratio of maximal signal over background for calcium mobilization assays) were normalized in percentage of activation (agonist mode) or inhibition (antagonist mode) using positive and negative experiment controls. Each individual plate quality was assessed by evaluation of Z′ factor calculated with raw data using the following equation
Y=bottom+(top−bottom)/(1+(10^(Log IC50−X)*Hillslope)) where X is the logarithm of the concentration of the compound

[4] = target: T3, human GPCR sphingosine 1-phosphate receptor 2 (Homo sapiens, UniProt O95136); assay: S1PR2 antagonist Ca2+ flux assay; type: cell-based; conditions: antagonist mode, CHO-S1PR2 cells, S1P at EC80, Ca2+ fluorescence; read-out: S1P2 EC50 (nM), S1P2 antagonist EC50
T3 construct: host or cells: CHO
In short: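 CHO cells stably expressing human S1PR2, serum-starved 1 h, Fluo8-loaded; compound-evoked Ca2+ fluorescence read 3 min (agonist mode), then after 15 min S1P at EC80 added and read 3 min (antagonist mode). Max/baseline fluorescence ratios normalised to vehicle and S1P EC100 or EC50 controls; EC50 derived.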

T2 sequence (P21453 whole entry): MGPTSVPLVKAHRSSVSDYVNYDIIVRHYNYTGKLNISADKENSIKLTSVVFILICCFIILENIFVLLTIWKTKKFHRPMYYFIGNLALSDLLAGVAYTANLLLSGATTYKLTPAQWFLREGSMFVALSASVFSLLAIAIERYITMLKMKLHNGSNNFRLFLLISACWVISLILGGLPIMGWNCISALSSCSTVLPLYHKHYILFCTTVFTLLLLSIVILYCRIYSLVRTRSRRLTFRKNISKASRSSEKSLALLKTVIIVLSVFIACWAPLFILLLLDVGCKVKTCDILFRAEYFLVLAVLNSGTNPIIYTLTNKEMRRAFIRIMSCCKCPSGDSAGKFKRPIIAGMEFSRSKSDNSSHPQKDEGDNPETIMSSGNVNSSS
T1 sequence (O95136 whole entry): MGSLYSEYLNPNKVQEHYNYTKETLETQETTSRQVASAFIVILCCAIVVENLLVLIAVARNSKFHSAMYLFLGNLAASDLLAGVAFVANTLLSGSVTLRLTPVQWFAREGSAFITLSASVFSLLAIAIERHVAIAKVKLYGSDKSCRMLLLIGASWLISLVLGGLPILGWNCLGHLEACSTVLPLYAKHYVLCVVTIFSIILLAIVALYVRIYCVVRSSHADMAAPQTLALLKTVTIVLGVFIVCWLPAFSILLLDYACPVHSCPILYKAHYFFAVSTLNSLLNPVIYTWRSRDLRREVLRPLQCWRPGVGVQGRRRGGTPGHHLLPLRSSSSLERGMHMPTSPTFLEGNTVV
T3 sequence (O95136 whole entry): as above

Compound	pEC50 (HFL-1 cells [1])	EC50 (S1PR2) [nM]	pEC50 (HFL-1 cells [2])	EC50 [3] [nM]	EC50 [4] [nM]
O=C(O)C1CCC1n1nc(Cn2cc3cc(OCC4CC4)c(Cl)cc3n2)c2ccccc2c1=O (centres unmarked) [Compound 91, 2-[4-[[6-chloro-5-(cyclopropylmethoxy)indazol-2-yl]methyl]-1-oxo-phthalazin-2-yl]cyclobutanecarboxylic acid]	5.24		7.22	≥ 19800	22.2
O=C(O)Cn1nc(Cc2nc3cc(OC(F)(F)F)c(Cl)cc3[nH]2)c2ccccc2c1=O [Compound 112, 2-[4-[[6-chloro-5-(trifluoromethoxy)-1H-benzimidazol-2-yl]methyl]-1-oxo-phthalazin-2-yl]acetic acid]	5.79		6.27	≥ 19900	
O=C(Cn1nc(Cc2nc3cc(OC(F)(F)F)c(Cl)cc3[nH]2)c2ccccc2c1=O)NC1CCS(=O)(=O)CC1 [Compound 141, 2-[4-[[6-chloro-5-(trifluoromethoxy)-1H-benzimidazol-2-yl]methyl]-1-oxo-phthalazin-2-yl]-N-(1,1-dioxothian-4-yl)acetamide]		70.6	6.89	≥ 19900	21.1
O=C(Cn1nc(Cc2nc3cc(OC(F)(F)F)c(Cl)cc3[nH]2)c2ccccc2c1=O)N1CCOCC1 [Compound 142, 4-[[6-chloro-5-(trifluoromethoxy)-1H-benzimidazol-2-yl]methyl]-2-(2-morpholino-2-oxo-ethyl)phthalazin-1-one]	6.02	103	6.72	≥ 19900	30.1
O=C(Cn1nc(Cc2nc3cc(Cl)c(OC(F)(F)F)cc3[nH]2)c2c(c1=O)CCCC2)N1CCOCC1 [Compound 145, 4-[[5-chloro-6-(trifluoromethoxy)-1H-benzimidazol-2-yl]methyl]-2-(2-morpholino-2-oxo-ethyl)-5,6,7,8-tetrahydrophthalazin-1-one]	6.48	80.2	7.05	≥ 19900	42.6
O=C(Cn1nc(Cn2cc3cc(OCC4CC4)c(Cl)cc3n2)c2ccccc2c1=O)N1CCOCC1 [Compound 148, 4-[[6-chloro-5-(cyclopropylmethoxy)indazol-2-yl]methyl]-2-(2-morpholino-2-oxo-ethyl)phthalazin-1-one]	6.10	32.1	7.16	≥ 19900	41.5
CN(CCS(C)(=O)=O)C(=O)Cn1nc(Cc2nc3cc(OCC(F)F)c(C#N)cc3[nH]2)c2ccccc2c1=O [Compound 220, 2-[4-[[6-cyano-5-(2,2-difluoroethoxy)-1H-benzimidazol-2-yl)methyl]-1-oxo-phthalazin-2-yl]-N-methyl-N-(2-methylsulfonylethyl)acetamide]	6.49	320	6.99		52.6
CS(=O)(=O)C1CCN(C(=O)Cn2nc(Cc3nc4cc(OCC(F)F)c(C#N)cc4[nH]3)c3ccccc3c2=O)C1 (centres unmarked) [Compound 221, 6-(2,2-difluoroethoxy)-2-[[3-[2-(3-methylsulfonylpyrrolidin-1-yl)-2-oxo-ethyl]-4-oxo-phthalazin-1-yl]methyl]-3H-benzimidazole-5-carbonitrile]	6.41	365	6.90		45.8
CC1(C)CCN(C(=O)Cn2nc(Cc3nc4cc(OCC(F)F)c(C#N)cc4[nH]3)c3ccccc3c2=O)C1 [Compound 233, 6-(2,2-difluoroethoxy)-2-[[3-[2-(3,3-dimethylpyrrolidin-1-yl)-2-oxo-ethyl]-4-oxo-phthalazin-1-yl]methyl]-3H-benzimidazole-5-carbonitrile]	6.25	210	7.54		16.8
O=C(O)Cc1nn(Cc2cc3cc(Cl)c(OCC4CC4)cc3[nH]2)c2ccccc2c1=O [compound 16, 2-[1-[[5-chloro-6-(cyclopropyl-methoxy)-1H-indol-2-yl]-methyl]-4-oxo-cinnolin-3-yl]-acetic acid]	7.29	29.9	8.07		4.58

Continued by rising pEC50 (HFL-1 cells [2]), values first:

pEC50 (HFL-1 cells [1])	EC50 (S1PR2) [nM]	pEC50 (HFL-1 cells [2])	EC50 [3] [nM]	EC50 [4] [nM]	Compound
5.71	3090	5.29	≥ 19800		CN1CCC(n2nc(Cc3nc4cc(OCC(F)F)c(C#N)cc4[nH]3)c3ccccc3c2=O)C1 (centres unmarked) [Compound 72, 6-(2,2-difluoroethoxy)-2-[[3-(1-methylpyrrolidin-3-yl)-4-oxo-phthalazin-1-yl]methyl]-3H-benzimidazole-5-carbonitrile]
5.00	4950	5.84		615	CC(=O)N1CCCC1Cn1nc(Cc2nc3cc(Cl)c(OC(F)(F)F)cc3[nH]2)c2ccccc2c1=O (centres unmarked) [compound 14, 2-[(1-acetylpyrrolidin-2-yl)-methyl]-4-[[5-chloro-6-(tri-fluoromethoxy)-1H-benzimidazol-2-yl]methyl]-phthalazin-1-one]
6.04	154	6.38	≥ 19900	23.7	O=C(O)Cn1nc(Cc2nc3cc(Cl)c(OC(F)(F)F)cc3[nH]2)c2c(c1=O)CCCC2 [Compound 113, 2-[4-[[5-chloro-6-(trifluoromethoxy)-1H-benzimidazol-2-yl]methyl]-1-oxo-5,6,7,8-tetrahydrophthalazin-2-yl]acetic acid]
5.95	29.8	6.94	≥ 19900	13	O=C(Cn1nc(Cc2nc3cc(OC(F)(F)F)c(Cl)cc3[nH]2)c2ccccc2c1=O)N[C@H]1CCC[C@H]1O [Compound 140, 2-[4-[[6-chloro-5-(trifluoromethoxy)-1H-benzimidazol-2-yl]methyl]-1-oxo-phthalazin-2-yl]-N-[(1S,2R)-2-hydroxycyclopentyl]acetamide]
5.46	113	6.95	≥ 19900	179	CCOc1cc2cn(Cc3nn(CC(=O)O)c(=O)c4ccccc34)nc2cc1Cl [Compound 251, 2-[4-[(6-chloro-5-ethoxy-indazol-2-yl)methyl]-1-oxo-phthalazin-2-yl]acetic acid]
5.50	59.4	6.98	≥ 19900	21	CCOc1cc2cn(Cc3nn(CC(=O)O)c(=O)c4ccccc34)nc2cc1Br [Compound 137, 2-[4-[(6-bromo-5-ethoxy-indazol-2-yl)methyl]-1-oxo-phthalazin-2-yl]acetic acid]
6.80	117	7.31		18.2	N#Cc1cc2[nH]c(Cc3nn(CC(=O)N4CCC5(C4)CC5(F)F)c(=O)c4ccccc34)nc2cc1OCC(F)F (centres unmarked) [Compound 235, 2-[[3-[2-(2,2-difluoro-5-azaspiro[2.4]heptan-5-yl)-2-oxo-ethyl]-4-oxo-phthalazin-1-yl]methyl]-6-(2,2-difluoroethoxy)-3H-benzimidazole-5-carbonitrile]
6.78	75.7	7.41		81.6	O=c1c2ccccc2c(Cn2cc3cc(OCC4CC4)c(Cl)cc3n2)nn1C1CNC1 [compound 2, 2-(azetidin-3-yl)-4-[[6-chloro-5-(cyclopropyl-methoxy)indazol-2-yl]methyl]-phthalazin-1-one]
		7.59	≥ 19900		COc1cc2nc(Cc3nn(CC(=O)O)c(=O)c4ccccc34)[nH]c2cc1Cl [Compound 136, 2-[4-[(6-chloro-5-methoxy-1H-benzimidazol-2-yl)methyl]-1-oxo-phthalazin-2-yl]acetic acid]
